According to PubChem BioAssay (NCI):
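The compound was tested at five concentrations on cells cultured in 96-well plates, with a 48-hour exposure period. TGI: total growth inhibition.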 Where a SMILES comes first, the peptide text is derived from it. The star is where a group is joined. Boc = CC(C)(C)OC(=O)*

How the values were obtained:
Experiment in all cases: NCI tumour cell line growth inhibition, 48 h
UO-31 renal = system: UO-31 renal
K-562 leukemia = system: K-562 leukemia
DU-145 prostate = system: DU-145 prostate
TK-10 renal = system: TK-10 renal
BT-549 breast = system: BT-549 breast
NCI-H460 lung = system: NCI-H460 lung
HCT-116 colon = system: HCT-116 colon
SF-295 CNS = system: SF-295 CNS
KM12 colon = system: KM12 colon
HOP-92 NSCLC = system: HOP-92 NSCLC
HS 578T breast = system: HS 578T breast
SK-OV-3 ovarian = system: SK-OV-3 ovarian

| SMILES | TGI (UO-31 renal) [µM] | TGI (K-562 leukemia) [µM] | TGI (DU-145 prostate) [µM] | TGI (TK-10 renal) [µM] | TGI (BT-549 breast) [µM] | TGI (NCI-H460 lung) [µM] | TGI (HCT-116 colon) [µM] | TGI (SF-295 CNS) [µM] | TGI (KM12 colon) [µM] | TGI (HOP-92 NSCLC) [µM] | TGI (HS 578T breast) [µM] | TGI (SK-OV-3 ovarian) [µM] |
| --- | --- | --- | --- | --- | --- | --- | --- | --- | --- | --- | --- | --- |
| COC(=O)C(Cc1c[nH]c2ccccc12)NC(=O)C(Cc1c[nH]c2ccccc12)NC(=O)C(Cc1c[nH]c2ccccc12)NC(=O)C(Cc1c[nH]c2ccccc12)NC(=O)C(Cc1c[nH]c2ccccc12)NC(=O)C(Cc1c[nH]c2ccccc12)NC(=O)C(Cc1c[nH]c2ccccc12)NC(=O)C(Cc1c[nH]c2ccccc12)NC(=O)OC(C)(C)C (stereo not drawn) (Boc-WWWWWWWW-OMe; configuration not given here) | > 100 | > 100 | > 100 | > 100 | > 100 | > 100 | > 100 |  |  |  |  |  |
| O=C1CC(c2ccccc2)n2cccc21 (stereo not drawn) | > 100 | > 100 | > 100 | > 100 |  |  | > 100 | > 100 | > 100 | > 100 | > 100 | > 100 |
| C=C(C)[C@@H]1CCC2=C[C@H](OC2=O)[C@@]2(C)C[C@@H]2C2=CC(C)=C(O2)[C@H]1O | > 75 | > 75 | > 75 | > 75 |  | > 75 | > 75 | > 75 | > 75 | > 75 |  | > 75 |
| Cc1nc2c(=O)n(C)ncc2[nH]1 | > 100 | > 100 | > 100 | > 100 | > 100 | > 100 | > 100 | > 100 | > 100 |  | > 100 |  |
| CCCC(=O)OC1C(CO)OC(n2cc(F)c(=O)[nH]c2=O)C1F (stereo not drawn) | > 100 |  | > 100 | > 100 | > 100 |  | > 100 | > 100 | > 100 | > 100 | > 100 | > 100 |
| Nc1nc2c3nc(Nc4ccccc4)sc3nc(=O)n2c2sc(Nc3ccccc3)nc12 | > 100 | > 100 |  |  |  |  | > 100 | > 100 |  | > 100 |  | > 100 |
| COc1ccc(SCc2cc(OCc3ccccc3)c(OCc3ccccc3)c(OCc3ccccc3)c2)cc1 | 3.18 | 2.62 | 3.13 | 3.32 | 4.59 |  | 3.14 | 3.58 | 3.16 | 3.08 |  | 3.18 |
| CO/N=C(\C)CCC#Cc1ccccc1C(=O)OC | > 10 | > 10 | > 10 | > 10 | > 10 | > 10 | > 10 | > 10 | > 10 |  | > 10 | > 10 |
| C=C(Br)CNC(=O)CCC(=O)NCC(=C)Br | > 100 | > 100 | > 100 | > 100 |  | > 100 | > 100 | > 100 | > 100 |  | > 100 | > 100 |
| O=C1c2ccc(O)c(O)c2C(=O)c2c(O)ccc(O)c21 | 42.8 | 70.9 |  | > 100 |  | 49.8 | 45.2 | 78.5 | 98.9 | 57.7 |  | 72.8 |
| CCN1CCC(O)(c2ccc(Cl)cc2)C(C(=O)c2ccc(Cl)cc2)C1 (stereo not drawn) | > 100 | > 100 |  | > 100 |  | > 100 | > 100 | > 100 | > 100 | > 100 |  | > 100 |
| COc1ccc2c(c1)CCc1c-2n(CCN2CCCCC2)c2ccc(OC)cc12 | > 100 | > 100 | > 100 | > 100 | > 100 | > 100 | > 100 | > 100 |  |  | > 100 | > 100 |
| C=C1C2C[C@@H]3O[C@H]4C[C@H]5O[C@@]6(C[C@@H]7O[C@]8(C[C@H](C)[C@@H]9O[C@@H]%10CC(CO)O[C@@H]%10C[C@@H]9O8)C[C@H](C)[C@@H]7O6)C[C@H]5O[C@H]4[C@H](C)[C@H]3OC(=O)C[C@H]3CC[C@@H]4OC5[C@H]6O[C@]7(CC[C@H]8CC(=C)[C@H](CC[C@@H](C[C@H]1C)O2)O8)CC6O[C@@H]5[C@@H](O7)[C@H]4O3 (stereo partly drawn) | > 1 | > 1 |  | > 1 | < 0.0001 |  |  | > 1 |  | > 1 | < 0.0001 | > 1 |
| CCOC(=O)c1ccc(N=c2sc3ccccc3nc2Nc2ccc(C(=O)OCC)cc2)cc1 | > 100 | > 100 | > 100 | > 100 |  | > 100 | > 100 | > 100 | > 100 | > 100 | > 100 | > 100 |
| C=CC(Cl)(CBr)CCC(Br)C(C)(C)Cl (stereo not drawn) | 29.3 | 72.4 | 42.8 | 38.6 | 38.6 | 28 | 25.4 | 28.8 |  | 39.8 | > 100 | > 100 |
| CC(C)/C(Cl)=N\OC(=O)Nc1cccc(Cl)c1 | 33.3 | 4.7 | 51.2 | 28.6 |  | 18.6 | 36.2 | > 58.9 | 31.6 |  | 72.8 | > 58.2 |
| OC(c1cc(C23CC4CC(CC(C4)C2)C3)nc2c(Cl)cc(Cl)cc12)C1CCCCN1 (stereo not drawn) | 2.35 | 3.07 | 3.29 | 3.23 |  | 3.13 | 2.7 | 3.76 | 3.07 | 2.67 | 3.89 |  |
| Cc1ccc(S(=O)(=O)NNCNC(=O)c2ccccc2)cc1 | > 100 | > 100 | > 100 | > 100 | > 100 |  | > 100 | > 100 | > 100 | > 100 | > 100 | > 100 |
| Cc1ccc2c(c1)-c1nc(N)c(C#N)c(-c3ccccc3)c1CCS2(=O)=O | > 100 | > 100 | > 100 | 61 | > 100 | > 100 | > 100 |  | > 100 | 80.3 | 68.1 |  |
